Data reported in ChEMBL document CHEMBL3639015, “Bicyclic compound or salt thereof” (2014).

What follows are compounds tested against Heat shock protein HSP 90-alpha (Homo sapiens, UniProt P07900) (assay: AlphaScreen Competitive Assay: HSP90-binding activity was determined by an AlphaScreen competitive assay system. The purified HSP90 solution was diluted with a binding buffer (50 mM Tris-HCl (pH 7.5), 150 mM NaCl, 0.1% Triton-X 100, 1 mM DTT, 0.1% BSA) and added to a 384-well plate (#3673, Corning Inc.) containing test substances. After reaction at room temperature for 2 hours, biotinylated geldanamycin was added thereto at a concentration of 40 nM/well and further reacted for 1 hour. Detection mix (20 mM HEPES-KOH (pH 7.5), 0.5% BSA, 0.04 mg/mL Nickel Chelate Acceptor beads, 0.04 mg/mL Streptavidin-coated Donor beads) (#6760619C, PerkinElmer, Inc.) was added to each well in an amount equal to the amount of the reaction solution and reacted at room temperature for 1 hour in the dark. Then, fluorescence intensity was measured using Multilabel Plate Reader EnVision (PerkinElmer, Inc.).).

Question: With `CCNc1cc(-c2cc(C(F)(F)F)nc3c(-n4cnc(-c5cnn(C(F)F)c5)c4)cccc23)ccc1C(N)=O` as the compound, how does the IC50 read?
Answer: The IC50 was 0.23 µM.

Question: With `Cn1cc(-c2cn(-c3cccc4c(-c5ccc(C(N)=O)c(NC6CCCCCC6)c5)nccc34)cn2)cn1` as the compound, how does the IC50 read?
Answer: Its IC50 is 0.27 µM.

Question: How did the IC50 turn out when `NCC(=O)OC1CCC(Nc2cc(-c3nccc4c(-c5cnc6ccccc6c5)cccc34)ccc2C(N)=O)CC1` (stereo not drawn) was run?
Answer: Its IC50 is 0.45 µM.

Question: How did the IC50 turn out when `CC(C)(C)Nc1cc(-c2cc(C(F)(F)F)nc3c(-n4cnc(-c5ccccc5)c4)cccc23)ccc1C(N)=O` was run?
Answer: The IC50 was 3.39 µM.

Question: With `CC(C)Cn1cc(-c2cn(-c3cccc4c(-c5ccc(C(N)=O)c(NC6CCC(O)CC6)c5)nccc34)cn2)cn1` (stereo not drawn) as the compound, how does the IC50 read?
Answer: Its IC50 is 0.28 µM.

Question: `NC(=O)c1ccc(-c2nccc3c(-c4cncc(N)c4)cccc23)cc1NC1CCC(O)CC1` (stereo not drawn) was tested. Which IC50 did it give?
Answer: Its IC50 is 0.06 µM.

Question: How did the IC50 turn out when `Cn1cc(-c2cn(-c3cccc4c(-c5ccc(C(N)=O)c(NCC6CC6)c5)cc(C(F)(F)F)nc34)cn2)cn1` was run?
Answer: Its IC50 is 0.22 µM.

Question: `CCNc1cc(-c2nccc3c(-n4cnc(-c5cnn(C)c5)c4)cccc23)ccc1C(N)=O` was tested. Which IC50 did it give?
Answer: The IC50 was 0.19 µM.
